{"source": "patent US9988377B2", "about": "“Small molecule inducers of GDNF as potential new therapeutics for neuropsychiatric disorders” (THE TRUSTEES OF COLUMBIA UNIVERSITY IN THE CITY OF NEW YORK, priority 2011, dated 2018)", "data": [{"system": "GDNF release by C6 glioma cells", "test": "GDNF release by conventional ELISA in conditioned media of C6 glioma cells", "assay_type": "cell-based", "settings": "10 μM compound, 48 h, 0.1% DMSO vehicle, representative experiment", "from_the_text": "(§1) Conventional ELISAs were used to determine compound-induced increases of GDNF concentration in conditioned media of C6 glioma cells, and have afforded increased sensitivity compared to in-situ ELISA in our hands. C6 cells were purchased from ATCC (Manassas, Va.) at passage 37 and were used between passages 41-46. This requirement for a narrow range of passages is based on an observed decrease in magnitude of GDNF release with age of the cell line, and is consistent with reported behavior of C6 cells. All incubations were conducted at 37° C. in a humidified atmosphere containing 5% CO2. GDNF release was measured for each compound in 3 independent experiments. Briefly, C6 cells were seeded into sterile 12-well culture plates (Falcon) at a density of 300,000 cells per well and were recovered for 24 h in 1mL complete growth medium (94% high glucose DMEM, 5% FBS, 1% penicillin/streptomycin). Wells were then washed with 1mL sterile DPBS and were incubated for an additional 24 h with 0.5 mL low-serum medium (98.5% high glucose DMEM, 0.5% FBS, 1% penicillin/streptomycin). On the following day, experimental compounds or DMSO vehicle control were added each to duplicate wells in an additional 0.5 mL of low-serum medium. The final concentration of each compound was 10 μM in 1mL low-serum medium containing 0.1% DMSO. Plates were incubated with compounds and vehicle control for 48 h. Conditioned media were then collected from each well and GDNF concentrations were measured in triplicate on 96-well ELISA plates using the GDNF Emax Immunoassay System from Promega (Madison, Wis.) according to the manufacturer's instructions. A Bio-Tek H1MF plate reader (Burlington, Vt.) was used to measure absorbance from the resulting colorimetric reaction. Total GDNF release for each compound was calculated from the standard curve using Microsoft Excel. Data are normalized to the vehicle control and are thus presented as fold increase of GDNF concentration in experimental wells over that of the vehicle control. Each reported compound afforded a statistically significant increase of GDNF release over the DMSO control in each of three independent experiments conducted on separate days unless otherwise noted. Statistical significance within each experiment was determined by ANOVA followed by Tukey's post-hoc analysis using GraphPad Prism. Because of the naturally high variability of GDNF release values between experiments, data presented herein are intra-assay means from a representative experiment ±intra-assay standard error of the mean (SEM) calculated from biological replicates. Cytotoxicity for each compound was below 20% as measured by LDH levels in conditioned media (Cytotox 96, Promega).\n(§2) All results (Table 2) represent fold-increase of GDNF release by C6 glioma cells treated with the indicated compound for 48 hours, normalized to the vehicle control. Results are presented from a representative experiment and were determined to be statistically significant (ANOVA) compared to the vehicle control.", "units": {"GDNF Increase ± SEM (fold/vehicle control)": "fold/vehicle control"}, "values": [{"molecule": "6-ethyl-2-(2-(5-fluoro-1H-indol-3-yl)ethyl)-2-azabicyclo[2.2.2]oct-5-ene [Compound 91]", "GDNF Increase ± SEM (fold/vehicle control)": "13.61 ± 0.62"}, {"molecule": "C1=CC2C(Cc3ccccc3)CC1CN2CCc1c[nH]c2ccccc12", "note": "(racemic) [Compound 77, exo-2-(2-(1H-indol-3-yl)ethyl)-7-benzyl-2-azabicyclo[2.2.2]oct-5-ene]", "GDNF Increase ± SEM (fold/vehicle control)": "13.22 ± 0.08"}, {"molecule": "CCCC1CC2C=CC1N(CCc1c[nH]c3ccc(F)cc13)C2", "note": "(racemic) [Compound 78, endo-2-(2-(5-fluoro-1H-indol-3-yl)ethyl)-7-propyl-2-azabicyclo[2.2.2]oct-5-ene]", "GDNF Increase ± SEM (fold/vehicle control)": "14.39 ± 0.51"}, {"molecule": "CCCCC1CC2C=CC1N(CCc1c[nH]c3ccccc13)C2", "note": "(racemic) [Compound 84, exo-2-(2-(1H-indol-3-yl)ethyl)-7-butyl-2-azabicyclo[2.2.2]oct-5-ene]", "GDNF Increase ± SEM (fold/vehicle control)": "12.65 ± 0.66"}, {"molecule": "CCC1CC2C=CC1N(CCc1c[nH]c3cccc(F)c13)C2", "note": "(racemic) [Compound 87, endo-7-ethyl-2-(2-(4-fluoro-1H-indol-3-yl)ethyl)-2-azabicyclo[2.2.2]oct-5-ene]", "GDNF Increase ± SEM (fold/vehicle control)": "10.87 ± 0.84"}, {"molecule": "CCC1CC2C=CC1N(CCc1c[nH]c3c(F)cccc13)C2", "note": "(racemic) [Compound 89, endo-7-ethyl-2-(2-(7-fluoro-1H-indol-3-yl)ethyl)-2-azabicyclo[2.2.2]oct-5-ene]", "GDNF Increase ± SEM (fold/vehicle control)": "14.71 ± 0.11"}, {"molecule": "CCC1CC2C=CC1N(CCc1csc3ccccc13)C2", "note": "(racemic) [Compound 90, endo-2-(2-(benzo[b]thiophen-3-yl)ethyl)-7-ethyl-2-azabicyclo[2.2.2]oct-5-ene]", "GDNF Increase ± SEM (fold/vehicle control)": "11.86 ± 0.01"}, {"molecule": "CCC1CC2C=CC1N(CCCc1c[nH]c3ccccc13)C2", "note": "(stereo not drawn) [Compound 81, exo-2-(3-(1H-indol-3-yl)propyl)-7-ethyl-2-azabicyclo[2.2.2]oct-5-ene]", "GDNF Increase ± SEM (fold/vehicle control)": "12.55 ± 0.05"}]}, {"system": "GDNF release by C6 glioma cells", "test": "GDNF release by conventional ELISA in conditioned media of C6 glioma cells", "assay_type": "cell-based", "settings": "C6 glioma, 48 h, 10 μM compound, 0.1% DMSO vehicle, representative experiment, read-out: GDNF Increase ± SEM (fold/vehicle control)", "from_the_text": "as §1, §2", "values": [{"molecule": "CCC1CC2C=CC1N(CCc1c[nH]c3c(F)cccc13)C2", "note": "(racemic) [Compound 69, exo-7-ethyl-2-(2-(7-fluoro-1H-indol-3-yl)ethyl)-2-azabicyclo [2.2.2]oct-5-ene]", "fold induction at 10 µM": "12.13 ± 0.01"}, {"molecule": "CCC1CC2C=CC1N(CCc1c[nH]c3cccc(F)c13)C2", "note": "(racemic) [Compound 70, exo-7-ethyl-2-(2-(4-fluoro-1H-indol-3-yl)ethyl)-2-azabicyclo[2.2.2]oct-5-ene]", "fold induction at 10 µM": "15.8 ± 0.65"}, {"molecule": "CCC1CC2C=CC1N(CCc1c[nH]c3cc(F)ccc13)C2", "note": "(racemic) [Compound 71, exo-7-ethyl-2-(2-(6-fluoro-1H-indol-3-yl)ethyl)-2-azabicyclo[2.2.2]oct-5-ene]", "fold induction at 10 µM": "16.5 ± 0.3"}, {"molecule": "CCC1CC2C=CC1N(CCc1c[nH]c3ccc(F)cc13)C2", "note": "(racemic) [Compound 72, exo-7-ethyl-2-(2-(5-fluoro-1H-indol-3-yl)ethyl)-2-azabicyclo[2.2.2]oct-5-ene]", "fold induction at 10 µM": "16.2 ± 0.41"}, {"molecule": "CCC1CC2C=CC1N(CCc1csc3ccccc13)C2", "note": "(racemic) [Compound 73, exo-2-(2-(benzo[b]thiophen-3-yl)ethyl)-7-ethyl-2-azabicyclo[2.2.2]oct-5-ene]", "fold induction at 10 µM": "9.87 ± 0.22"}, {"molecule": "CCCC1CC2C=CC1N(CCc1c[nH]c3ccccc13)C2", "note": "(racemic) [Compound 75, endo-2-(2-(1H-indol-3-yl)ethyl)-7-propyl-2-azabicyclo [2.2.2]oct-5-ene]", "fold induction at 10 µM": "14.8 ± 0.85"}, {"molecule": "C1=CC2C(Cc3ccccc3)CC1CN2CCc1c[nH]c2ccccc12", "note": "(racemic) [Compound 76, endo-2-(2-(1H-indol-3-yl)ethyl)-7-benzyl-2-azabicyclo[2.2.2]oct-5-ene]", "fold induction at 10 µM": "12.8 ± 0.85"}, {"molecule": "CCCC1CC2C=CC1N(CCc1c[nH]c3ccc(F)cc13)C2", "note": "(racemic) [Compound 79, exo-2-(2-(5-fluoro-1H-indol-3-yl)ethyl)-7-propyl-2-azabicyclo[2.2.2]oct-5-ene]", "fold induction at 10 µM": "14.6 ± 0.21"}, {"molecule": "C1=CC2C(Cc3cccnc3)CC1CN2CCc1c[nH]c2ccccc12", "note": "(racemic) [Compound 80, exo-2-(2-(1H-indol-3-yl)ethyl)-7-(pyridin-3-ylmethyl)-2-azabicyclo[2.2.2]oct-5-ene]", "fold induction at 10 µM": "7.02 ± 1.31"}, {"molecule": "CCC1CC2C=CC1N(CCc1cn(S(=O)(=O)c3ccc(C)cc3)c3ccccc13)C2", "note": "(racemic) [Compound 82, exo-7-ethyl-2-(2-(1-tosyl-1H-indol-3-yl)ethyl)-2-azabicyclo[2.2.2]oct-5-ene]", "fold induction at 10 µM": "13.6 ± 1.41"}, {"molecule": "CCCCC1CC2C=CC1N(CCc1c[nH]c3ccccc13)C2", "note": "(racemic) [Compound 83, endo-2-(2-(1H-indol-3-yl)ethyl)-7-butyl-2-azabicyclo[2.2.2]oct-5-ene]", "fold induction at 10 µM": "12.8 ± 0.5"}, {"molecule": "Fc1ccc2[nH]cc(CCN3CC4C=CC3C(Cc3ccccc3)C4)c2c1", "note": "(racemic) [Compound 85, exo-7-benzyl-2-(2-(5-fluoro-1H-indol-3-yl)ethyl)-2-azabicyclo[2.2.2]oct-5-ene]", "fold induction at 10 µM": "13.2 ± 2.03"}, {"molecule": "C1=CC2C(COCc3ccccc3)CC1CN2CCc1c[nH]c2ccccc12", "note": "(racemic) [Compound 86, endo-2-(2-(1H-indol-3-yl)ethyl)-7-(benzyloxymethyl)-2-azabicyclo[2.2.2]oct-5-ene]", "fold induction at 10 µM": "13.8 ± 2.01"}, {"molecule": "CCCC1CC2C=CC1N(CCc1c[nH]c3ccccc13)C2", "note": "(stereo not drawn) [Compound 74, exo-2-(2-(1H-indol-3-yl)ethyl)-7-propyl-2-azabicyclo[2.2.2]oct-5-ene]", "fold induction at 10 µM": "7.11 ± 1.17"}]}, {"system": "GDNF release from C6 glioma cells", "test": "GDNF in-situ ELISA in C6 glioma cells", "assay_type": "cell-based", "settings": "10 μM compound, 48-hour incubation, fold over control release, corrected for pre-treatment release", "method": "(§3) The GDNF Emax Immunoassay System from Promega (Madison, Wis.) was used to determine small molecule induced GDNF release from C6 glioma cells (ATCC, Manassas, Va.) with the following protocol. A 96-well ELISA plate was sterilized with UV for 30 minutes. The plate was coated with 100 μl/well of the anti-GDNF monoclonal antibody solution in carbonate coating buffer prepared per the manufacturer's instructions, and incubated overnight at 4° C. The antibody coating buffer was removed from the plate, which was then blocked according to the instructions in the kit. The plate was then incubated with 200 μl/well complete growth medium ([…], 5% FBS, 1% penicillin/streptomycin) for 2×1 h at rt to remove residue of the blocking buffer. After these washes were complete, fresh culture media was added to the wells. C6 cells were seeded at a density of 11,000 cells/well, with a total volume of approximately 150 μl in each well. The plate was incubated at 37° C. in an atmosphere containing 5% CO2. After 24 hours, complete growth medium was replaced with low serum medium (98.5% DMEM, 0.5% FBS, 1% penicillin/streptomycin) and the plate was incubated overnight for cellular synchronization. On the following day, cells were treated with experimental compounds for the indicated time. We used 10 μM concentrations of the tested compounds during a 48-hour incubation. Simultaneously with initiation of treatment, cells were removed from pre-treatment control wells with 5×200 μL washes of TBST (to control for basal GDNF release before the treatment period), and low-serum medium was added to these wells. 6 hours prior to stopping treatment with experimental compounds, the GDNF standard was added to the plate per the manufacturer's instructions. To terminate the treatment, the plate was washed extensively with 200 μl/well TBST washing buffer 5 times, which removed the cells. GDNF release for each well was measured according to GDNF Emax Immunoassay system instructions, and a plate reader was used to measure absorbance at 450 nm. Total GDNF release is calculated from the standard curve using Microsoft Excel. The listed values in Table 1 are presented as fold-increase of release of GDNF over control release of GDNF, corrected for pre-treatment release by subtracting from all values the mean amount of GDNF released in pre-treatment control wells. Statistical significance was determined using the Student's t-test.", "units": {"Fold-Increase of GDNF Concentration": "fold"}, "values": [{"molecule": "CCC1CC2C=CC1N(CCc1c[nH]c3ccc(OC)cc13)C2", "note": "(racemic) [Compound 12c, endo-7-ethyl-2-[2-(5-methoxy-1H-indol-3-yl)ethyl]-2-azabicyclo [2.2.2]oct-5-ene]", "Fold-Increase of GDNF Concentration": "2.1 ± 0.1"}]}, {"system": "GDNF release from C6 glioma cells", "test": "GDNF in-situ ELISA in C6 glioma cells", "assay_type": "cell-based", "settings": "C6 glioma, 48 h, 10 μM compound, 48-hour incubation, fold over control release, corrected for pre-treatment release, read-out: Fold-Increase of GDNF Concentration", "method": "as §3", "values": [{"molecule": "CCC1CC2C=CC1N(CCc1c[nH]c3ccc(OC)cc13)C2", "note": "(racemic) [Compound 10b, exo-7-ethyl-2-[2-(5-methoxy-1H-indol-3-yl)ethyl]-2-azabicyclo[2.2.2]oct-5-ene]", "fold induction at 10 µM": "2.2 ± 0.2"}, {"molecule": "CCC1CC2C=CC1N(CCCc1c[nH]c3ccccc13)C2", "note": "(racemic) [Compound 12b, endo-2-[3-(1H-indol-3-yl)propyl]-7-ethyl-2-azabicyclo [2.2.2] oct-5-ene]", "fold induction at 10 µM": 1.5}, {"molecule": "CCOC(=O)c1[nH]c2ccccc2c1CCN1CC2C=CC1C(CC)C2", "note": "(racemic) [Compound 12d, endo-ethyl-3-[2-(7-ethyl-2-azabicyclo[2.2.2]oct-5-en-2-yl)ethyl]-1H-indole-2-carboxylate]", "fold induction at 10 µM": 1.5}]}]}
